Measured values reported in ChEMBL document CHEMBL1134234, “NO-independent stimulators of soluble guanylate cyclase” (Bioorg Med Chem Lett, 2001).

Columns and labels:
Oryctolagus cuniculus [1] = species on record: Oryctolagus cuniculus; assay: (§1) Ability to inhibit maximum constriction of phenylephrine-treated precontracted (3x10 -8 g/mL) rabbit aortic rings; assay type: functional; conditions: Aorta
Oryctolagus cuniculus [2] = species on record: Oryctolagus cuniculus; assay: as §1; assay type: functional, Aorta

| Structure (SMILES) | IC50 (Oryctolagus cuniculus [1]) [µM] | Inhibition (Oryctolagus cuniculus [2]) [%] |
| --- | --- | --- |
| N#Cc1cccc(Cn2nc(-c3ccc(CO)o3)c3ccccc32)c1 | 26 |  |
| Nc1nc(-c2nn(Cc3ccccc3F)c3ncccc23)ncc1C1CCCC1 | 0.904 |  |
| OCc1ccc(-c2nn(Cc3cncnc3)c3ccccc23)o1 | 3.2 |  |
| OCc1ccc(-c2nn(Cc3cccnc3)c3ccccc23)o1 | 9.6 |  |
| OCc1ccc(-c2nn(Cc3ccccn3)c3ccccc23)o1 | 16 |  |
| CCCCCc1cnc(-c2nn(Cc3ccccc3F)c3ncccc23)nc1N | 200 |  |
| N#Cc1ccccc1Cn1nc(-c2ccc(CO)o2)c2ccccc21 | 8.7 |  |
| CC(C)(C)c1cnc(-c2nn(Cc3ccccc3F)c3ncccc23)nc1N | 0.709 |  |
| N#CCCc1cnc(-c2nn(Cc3ccccc3F)c3ncccc23)nc1N | 412 |  |
| OCc1ccc(-c2nn(Cc3ccccc3F)c3ccccc23)o1 | 4.9 |  |
| CCOP(=O)(OCC)c1cnc(-c2nn(Cc3ccccc3F)c3ncccc23)nc1N | 414 |  |
| Cc1coc(-c2nn(Cc3ccccc3F)c3ncccc23)n1 | 1.2 |  |
| OCc1ccc(-c2nn(Cc3ccc(Cl)s3)c3ccccc23)o1 | 7.2 |  |
| OCc1ccc(-c2nn(Cc3ccccc3F)c3cccnc23)o1 | 20.4 | 27 |
| Nc1nc(-c2nn(Cc3ccccc3F)c3ncccc23)ncc1C1CCC1 | 633 |  |
| Fc1ccccc1Cn1nc(C2=NCCN2)c2cccnc21 | 3.2 |  |
| CC(C)S(=O)(=O)c1cnc(-c2nn(Cc3ccccc3F)c3ncccc23)nc1N | 517 |  |
| OCc1ccc(-c2nn(Cc3ccccc3)c3ccccc23)o1 | 10 |  |
| Nc1nc(-c2nn(Cc3ccccc3F)c3ncccc23)ncc1N1CCSCC1 | 650 |  |

| Structure (SMILES) | IC50 (Oryctolagus cuniculus [1]) [µM] | Inhibition (Oryctolagus cuniculus [2]) [%] |
| --- | --- | --- |
| CCCCc1cnc(-c2nn(Cc3ccccc3F)c3ncccc23)nc1N | 218 |  |
| CCCS(=O)(=O)c1cnc(-c2nn(Cc3ccccc3F)c3ncccc23)nc1N | 378 |  |
| OCc1ccc(-c2nn(Cc3ccccc3F)c3cnccc23)o1 | 6.93 |  |
| Nc1nc(-c2nn(Cc3ccccc3F)c3ncccc23)ncc1C1CCCCC1 | 561 |  |
| CC(C#N)CCCCCc1cnc(-c2nn(Cc3ccccc3F)c3ncccc23)nc1N (centres undefined) | 1290 |  |
| Nc1nc(-c2nn(Cc3ccccc3F)c3ncccc23)ncc1N1CCOCC1 | 306 |  |
| CS(=O)(=O)c1cnc(-c2nn(Cc3ccccc3F)c3ncccc23)nc1N | 261 |  |
| OCc1ccc(-c2nn(Cc3ccc(F)cc3)c3ccccc23)o1 | 19 |  |
| N#CCCCCCc1cnc(-c2nn(Cc3ccccc3F)c3ncccc23)nc1N | 588 |  |
| OCc1ccc(-c2nn(Cc3ccccc3F)c3ccncc23)o1 | 9.8 |  |
| Nc1nc(-c2nn(Cc3ccccc3F)c3ncccc23)ncc1CC(F)(F)F | 508 |  |
| NS(=O)(=O)c1ccc(-c2nn(Cc3ccccc3F)c3ncccc23)o1 | 8 |  |
| OCc1ccc(-c2nn(Cc3ccccc3F)c3ncncc23)o1 | 9.4 |  |
| CCCCCCc1cnc(-c2nn(Cc3ccccc3F)c3ncccc23)nc1N | 1.04 |  |
| Nc1nc(-c2nn(Cc3ccccc3F)c3ncccc23)ncc1C1=CCCC1 | 0.836 |  |
| OCc1ccc(-c2nn(Cc3cccc(F)c3)c3ccccc23)o1 | 10 |  |
| Nc1nc(-c2nn(Cc3ccccc3F)c3ncccc23)nc(N)c1C1CC1 | 233 |  |
| OCc1ccc(-c2nn(Cc3c(F)cccc3F)c3ccccc23)o1 | 15 |  |

More lines, main results first:

| IC50 (Oryctolagus cuniculus [1]) [µM] | Structure (SMILES) | Inhibition (Oryctolagus cuniculus [2]) [%] |
| --- | --- | --- |
| 1.5 | Cc1oc(-c2nn(Cc3ccccc3F)c3ncccc23)nc1CO |  |
| 4.8 | Fc1ccccc1Cn1nc(-c2ccccn2)c2cccnc21 |  |
| 1.3 | OCc1ccnc(-c2nn(Cc3ccccc3F)c3ncccc23)n1 |  |
| 207 | CC(C)c1cnc(-c2nn(Cc3ccccc3F)c3ncccc23)nc1N |  |
| 0.6 | CCc1c[nH]c(-c2nn(Cc3ccccc3F)c3ncccc23)n1 |  |
| 675 | Cc1cnc(-c2nn(Cc3ccccc3F)c3ncccc23)nc1N |  |
| 1.4 | NCc1cnc(-c2nn(Cc3ccccc3F)c3ncccc23)nc1N |  |
| 243 | CSc1cnc(-c2nn(Cc3ccccc3F)c3ncccc23)nc1N |  |
| 8.6 | Fc1ccccc1Cn1nc(-c2nn[nH]n2)c2cccnc21 |  |
| 391 | N#Cc1cnc(-c2nn(Cc3ccccc3F)c3ncccc23)nc1N |  |
| 343 | COc1cnc(-c2nn(Cc3ccccc3F)c3ncccc23)nc1N |  |
| 272 | CCc1cnc(-c2nn(Cc3ccccc3F)c3ncccc23)nc1N |  |
| 1.7 | OCc1ccc(-c2nn(Cc3ccccc3F)c3ncccc23)o1 |  |
| 1.8 | Fc1ccccc1Cn1nc(-c2cc[nH]n2)c2cccnc21 |  |
| 478 | Nc1nc(-c2nn(Cc3ccccc3F)c3ncccc23)ncc1F |  |
| 252 | CCCc1cnc(-c2nn(Cc3ccccc3F)c3ncccc23)nc1N |  |
| 0.9 | Cc1nc(-c2nn(Cc3ccccc3F)c3ncccc23)oc1CO |  |
| 304 | Nc1nc(-c2nn(Cc3ccccc3F)c3ncccc23)ncc1C1CC1 |  |
| 9.3 | Fc1ccccc1Cn1nc(-c2ccco2)c2cccnc21 |  |
| 1.25 | Fc1ccccc1Cn1nc(-c2ncccn2)c2cccnc21 |  |
| 536 | Cc1cc(N)nc(-c2nn(Cc3ccccc3F)c3ncccc23)n1 |  |
